Experimental data published in ChEMBL document CHEMBL5550206, “Identification of 6-Fluorine-Substituted Coumarin Analogues as POLRMT Inhibitors with High Potency and Safety for Treatment of Pancreatic Cancer” (J Med Chem, 2024).
Active and inactive are the calls of the source. The calls are words filed in the database; no cut-off is given here.

Columns and labels:
[1] = tested on: MIA PaCa-2; test: Induction of cell arrest in human MIA PaCa-2 cells assessed as early apoptotic cells at 50 nM measured after 4 days by Annexin V-FITC and propidium iodide (PI) staining based assay (reference value: 1.07%); assay type: functional; settings: time 4 day
[2] = tested on: MIA PaCa-2; test: Inhibition of mitochondria coded ubiquinone oxidoreductase core subunit 1 (ND I) transcript level in human MIA PaCa-2 cells measured after 12 to 36 hrs of compound removal by RT-qPCR analysis; assay type: functional; settings: time 12-36 hrs
[3] = tested on: MIA PaCa-2; test: Antitumor activity against human MIA PaCa-2 cells xenografted in BALB/c nude mouse assessed as reduction in Ki67 protein expression at 25 to 100 mg/kg, iv once daily for 25 consecutive day after 2 weeks of cells injection by immunohistochemical analysis; assay type: functional, organism-based; settings: dose 25-100 mg/kg
[4] = tested on: MIA PaCa-2; test: Induction of cell arrest in human MIA PaCa-2 cells assessed as accumulation of cells at G1 phase at 100 nM measured after 96 hrs by PI staining based flow cytometry (reference value: 64%); assay type: functional
[5] = tested on: MIA PaCa-2; test: Reduction of protein complexes of mitochondrial electron transport chain in human MIA PaCa-2 cells reduction in MTCO1 protein level by Western blot analysis; assay type: functional, cell-based; settings: dose 0.001-5 µM
[6] = tested on: MIA PaCa-2; test: Reduction of protein complexes of mitochondrial electron transport chain in human MIA PaCa-2 cells reduction in UQCRC2 protein level by Western blot analysis; assay type: functional, cell-based; settings: dose 0.001-5 µM
[7] = target: DNA-directed RNA polymerase, mitochondrial (Homo sapiens) (UniProt O00411); test: Inhibition of human POLRMT in human MIA PaCa-2 cells assessed as mitochondria coded ubiquinone oxidoreductase core subunit 1 (ND I) transcript level at 500 nM measured after 24 hrs by RT-qPCR analysis relative to control; design: scale not given: the % may be the effect or the level left
Chain of DNA-directed RNA polymerase, mitochondrial (Homo sapiens) (O00411 whole entry): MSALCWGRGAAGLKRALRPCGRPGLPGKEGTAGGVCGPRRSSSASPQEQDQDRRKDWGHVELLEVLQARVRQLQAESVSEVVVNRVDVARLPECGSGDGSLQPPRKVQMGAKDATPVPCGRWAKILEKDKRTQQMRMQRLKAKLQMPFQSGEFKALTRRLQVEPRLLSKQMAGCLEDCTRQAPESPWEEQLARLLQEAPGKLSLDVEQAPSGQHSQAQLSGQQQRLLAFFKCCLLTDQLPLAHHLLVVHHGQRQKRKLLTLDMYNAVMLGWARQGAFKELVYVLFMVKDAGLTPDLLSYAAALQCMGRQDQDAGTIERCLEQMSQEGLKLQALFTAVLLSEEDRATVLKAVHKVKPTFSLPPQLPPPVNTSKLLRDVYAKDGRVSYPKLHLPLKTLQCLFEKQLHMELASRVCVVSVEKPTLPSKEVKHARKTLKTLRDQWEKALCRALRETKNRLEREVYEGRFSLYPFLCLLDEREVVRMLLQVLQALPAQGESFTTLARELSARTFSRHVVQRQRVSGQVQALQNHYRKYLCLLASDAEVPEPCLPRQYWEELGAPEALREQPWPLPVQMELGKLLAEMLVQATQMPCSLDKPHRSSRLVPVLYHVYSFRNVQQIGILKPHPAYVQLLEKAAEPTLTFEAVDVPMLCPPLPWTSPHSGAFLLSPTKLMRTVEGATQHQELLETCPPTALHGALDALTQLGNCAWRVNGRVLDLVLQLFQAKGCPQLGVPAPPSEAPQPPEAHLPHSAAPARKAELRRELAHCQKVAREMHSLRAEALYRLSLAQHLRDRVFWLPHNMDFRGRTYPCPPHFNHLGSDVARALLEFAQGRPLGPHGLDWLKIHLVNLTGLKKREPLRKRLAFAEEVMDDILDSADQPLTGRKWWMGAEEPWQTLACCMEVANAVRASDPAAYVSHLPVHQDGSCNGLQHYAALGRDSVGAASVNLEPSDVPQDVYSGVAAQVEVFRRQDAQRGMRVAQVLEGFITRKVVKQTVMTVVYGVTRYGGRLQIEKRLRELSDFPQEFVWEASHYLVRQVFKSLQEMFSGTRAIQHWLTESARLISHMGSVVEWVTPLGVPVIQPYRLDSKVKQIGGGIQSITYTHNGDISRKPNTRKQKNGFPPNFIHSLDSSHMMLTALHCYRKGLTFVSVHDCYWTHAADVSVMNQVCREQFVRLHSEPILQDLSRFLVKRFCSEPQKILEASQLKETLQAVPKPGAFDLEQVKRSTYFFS

[8] = tested on: MIA PaCa-2; test: Inhibition of colony formation in human MIA PaCa-2 cells at 5 to 200 nM incubated for 14 days by crystal violet staining based assay; assay type: functional, cell-based; settings: dose 5-200 nM, time 14.0 day
[9] = Toxicity in BALB/c mouse xenografted with human MIA PaCa-2 cells assessed as pathological change in lung at 25 to 100 mg/kg, iv once daily for 25 consecutive day after 2 weeks of cells injection by H and E staining based optical microscopic analysis; assay type: organism-based; settings: in vivo, 336 h, dose 25-100 mg/kg
[10] = tested on: MIA PaCa-2; test: Down-regulation of CytB gene expression in human MIA PaCa-2 cells at 0.1 to 1 uM measured after 12 hrs by RT-qPCR analysis; assay type: functional, cell-based; settings: dose 0.1-1 µM
[11] = tested on: MIA PaCa-2; test: Induction of cell arrest in human MIA PaCa-2 cells assessed as viable cells at 200 nM measured after 4 days by Annexin V-FITC and propidium iodide (PI) staining based assay (reference value: 94.9%); assay type: functional; settings: MIA PaCa-2, 96 h, time 4 day, read-out: Activity
[12] = tested on: MIA PaCa-2; test: Induction of cell arrest in human MIA PaCa-2 cells assessed as viable cells at 500 nM measured after 4 days by Annexin V-FITC and propidium iodide (PI) staining based assay (reference value: 94.9%); assay type: functional; settings: MIA PaCa-2, 96 h, time 4 day, read-out: Activity
[13] = tested on: MIA PaCa-2; test: Induction of cell arrest in human MIA PaCa-2 cells assessed as late apoptotic cells at 50 nM measured after 4 days by Annexin V-FITC and propidium iodide (PI) staining based assay (reference value: 3.23%); assay type: functional; settings: time 4 day
[14] = tested on: MIA PaCa-2; test: Induction of cell arrest in human MIA PaCa-2 cells assessed as accumulation of cells at S phase at 100 nM measured after 96 hrs by PI staining based flow cytometry (reference value: 16.8%); assay type: functional
[15] = tested on: MIA PaCa-2; test: Induction of cell arrest in human MIA PaCa-2 cells assessed as accumulation of cells at G1 phase at 500 nM measured after 96 hrs by PI staining based flow cytometry (reference value: 64%); assay type: functional
[16] = Toxicity in BALB/c mouse xenografted with human MIA PaCa-2 cells assessed as pathological change in heart at 25 to 100 mg/kg, iv once daily for 25 consecutive day after 2 weeks of cells injection by H and E staining based optical microscopic analysis; assay type: organism-based; settings: in vivo, 336 h, dose 25-100 mg/kg
[17] = tested on: MIA PaCa-2; test: Effect on SDHB protein complexes in human MIA PaCa-2 cells reduction in NDUFB8 protein level at 0.01 to 10 uM by Western blot analysis; assay type: functional, cell-based; settings: dose 0.01-10 µM
[18] = tested on: MIA PaCa-2; test: Induction of senescence in human MIA PaCa-2 cells at 50 to 1000 nM measured after 96 hrs by beta-galactosidase staining based assay; assay type: functional, cell-based; settings: dose 50-1000 nM
[19] = tested on: MIA PaCa-2; test: Induction of apoptosis in human MIA PaCa-2 cells xenografted in BALB/c mouse at 25 to 100 mg/kg, iv once daily for 25 consecutive day after 2 weeks of cells injection by TUNEL staining based analysis; assay type: functional, organism-based; settings: dose 25-100 mg/kg
[20] = tested on: MIA PaCa-2; test: Induction of cell arrest in human MIA PaCa-2 cells assessed as accumulation of cells at G1 phase at 25 nM measured after 96 hrs by PI staining based flow cytometry (reference value: 64%); assay type: functional
[21] = tested on: MIA PaCa-2; test: Induction of cell arrest in human MIA PaCa-2 cells assessed as accumulation of cells at S phase at 25 nM measured after 96 hrs by PI staining based flow cytometry (reference value: 16.8%); assay type: functional
[22] = Toxicity in BALB/c mouse xenografted with human MIA PaCa-2 cells assessed as pathological change in liver at 25 to 100 mg/kg, iv once daily for 25 consecutive day after 2 weeks of cells injection by H and E staining based optical microscopic analysis; assay type: organism-based; settings: in vivo, 336 h, dose 25-100 mg/kg
[23] = target: DNA-directed RNA polymerase, mitochondrial (Homo sapiens) (UniProt O00411); test: Thermal stabilization of human POLRMT in human MIA PaCa-2 cells assessed as melting temperature at 100 uM measured after 30 mins incubation by Wester blot analysis (reference value: 42 degreeC); assay type: cell-based
[24] = tested on: PANC-1; test: Antiproliferative activity against human PANC-1 cells assessed as cell viability measured after 168 hrs incubation by SRB assay; assay type: functional, cell-based; settings: PANC-1, 168 h
[25] = tested on: MIA PaCa-2; test: Induction of cell arrest in human MIA PaCa-2 cells assessed as accumulation of cells at G1 phase at 50 nM measured after 96 hrs by PI staining based flow cytometry (reference value: 64%); assay type: functional
[26] = tested on: MIA PaCa-2; test: Induction of cell arrest in human MIA PaCa-2 cells assessed as accumulation of cells at G1 phase at 200 nM measured after 96 hrs by PI staining based flow cytometry (reference value: 64%); assay type: functional
[27] = tested on: MIA PaCa-2; test: Induction of cell arrest in human MIA PaCa-2 cells assessed as accumulation of cells at G2 phase at 50 nM measured after 96 hrs by PI staining based flow cytometry (reference value: 11.2%); assay type: functional
[28] = tested on: MIA PaCa-2; test: Induction of intracellular ROS generation in human MIA PaCa-2 cells at 0.1 to 5 uM incubated for 96 hrs by DCFH-DA staining based flow cytometry; assay type: functional, cell-based; settings: dose 0.1-5 µM
[29] = tested on: MIA PaCa-2; test: Inhibition of colony formation in human MIA PaCa-2 cells assessed as decrease in size of colony at 5 nM incubated for 14 days by crystal violet staining based assay; assay type: functional, cell-based; settings: time 14.0 day
[30] = Antiproliferative activity against HUVEC cells assessed as cell viability measured after 168 hrs incubation by SRB assay; assay type: toxicity, cell-based; settings: human
[31] = tested on: MIA PaCa-2; test: Induction of cell arrest in human MIA PaCa-2 cells assessed as early apoptotic cells at 200 nM measured after 4 days by Annexin V-FITC and propidium iodide (PI) staining based assay (reference value: 1.07%); assay type: functional; settings: time 4 day

In the case of `CCN(CC)C(=O)[C@@H](C)Oc1cc2oc(=O)cc(-c3ccccc3C)c2cc1F`, the Activity [1] is reported as 1.08%, the inhibition [2] is reported as “Active” and the Activity [3] is reported as “Active”. For the same compound, the Activity [4] was 63.6%, the Activity [5] was “Dose-Dependent Effect” and the Activity [6] was “Dose-Dependent Effect”. For the same compound, the Activity [7] was 9%, the inhibition [8] was “Active” and the Activity [9] was “Non-Toxic”. The Activity [10] was “Active”, the viability at 0.2 µM [11] was 94.2% and the viability at 0.5 µM [12] was 94.3%. The Activity [13] was 4.02%, the Activity [14] was 16.7% and the Activity [15] was 63.4%. For the same compound, the Activity [16] was “Non-Toxic”, the Activity [17] was “inactive” and the Activity [18] was “inactive”. The Activity [19] was “inactive”, the Activity [20] was 65.5% and the Activity [21] was 14.2%. The Activity [22] was “Non-Toxic”, the Tm [23] was 57 °C and the IC50 [24] was 198 nM. For the same compound, the Activity [25] was 67.1%, the Activity [26] was 62.4% and the Activity [27] was 10.4%. The Activity [28] was “inactive”, the inhibition [29] was “Active” and the IC50 at 168 h [30] was greater than 50000 nM. For the same compound, the Activity [31] was 1.06%.
